Reference: patent US20220226281A1, “COMPOUNDS FOR USE IN ANTI-CANCER IMMUNOTHERAPY” (priority 2019, published 2022)

System: splenocytes from LCMV-CL13 infected IFN-γ-YFP mice
Format: cell-based

Structure (SMILES) | Mean Z-score at 1 μM (reversal of T-cell exhaustion)
O=S(=O)(NCCCCCCc1ccccc1)c1cccc2c(Cl)cccc12 [5-chloro-N-(6-phenylhexyl)naphthalene-1-sulfonamide] | 11.1
CCCCCCCCCCCCCC(=O)O[C@@H]1[C@@H](C)[C@@]2(O)C(C=C(CO)C[C@]3(O)C(=O)C(C)=C[C@@H]23)[C@@H]2C(C)(C)[C@]12OC(C)=O (some centres unmarked) [12-O-tetradecanoylphorbol-13-acetate] | 17.8
C/C=C(/C)C(=O)O[C@H]1C(C)=C[C@]23C(=O)[C@@H](C=C(CO)[C@@H](O)[C@]12O)[C@H]1[C@@H](C[C@H]3C)C1(C)C [Ingenol-3-angelate] | 30.9
CC1=C[C@]23C(=O)[C@@H](C=C(CO)[C@@H](O)[C@]2(O)[C@H]1O)[C@H]1[C@@H](C[C@H]3C)C1(C)C [Ingenol] | 0.6
CO[C@@H](CC[C@H](C)[C@H]1O[C@@]23C[C@H](OC(=O)C2=C(O)[C@H](C)CC3(C)C)[C@@H]1C)c1cccc(O)c1 [Neo-debromoaplysiatoxin B] | 3.6
CC(=O)O[C@@]12[C@H](O)[C@@H](C)[C@@]3(O)C(C=C(CO)C[C@]4(O)C(=O)C(C)=C[C@@H]34)[C@@H]1C2(C)C (some centres unmarked) [Phorbol-13-acetate] | 0.9
CC(C)[C@H]1C(=O)N[C@H](CO)Cc2cc(NC(=O)/C=C/C=C/c3ccc(C(F)(F)F)cc3)ccc2N1C [TPPB] | 4.6
CC(=O)O[C@@]12C[C@@H](C)[C@@]3(O)[C@@H](C=C(CO)C[C@]4(O)C(=O)C(C)=C[C@@H]34)[C@@H]1C2(C)C [prostratin] | 48.9
